Assay results: patent US11224224B2, “Thiobenzoimidazole as fungicides” (REDAG CROP PROTECTION LTD, priority 2017, dated 2022)
Values after ≈ are worked out from the molar mass of the structure shown.

How the values were obtained:
Format in all cases: cell-based
Phytophthora cactorum = assay: 96 well plate test (amended agar with spores); settings: 96 well plate, 20, 2, 0.2 and 0.02 ppm, 1% PDA, 2 to 3 days (cells marked *), read-out: EC50 Phytophthora spp. (*96 well plate format vs. Phytophthora cactorum)
Method: Compounds were screened in 96 well plates with 10 compounds per plate. Each compound was screened using agar amended to 20, 2, 0.2 and 0.02 ppm, with Proline at 50 and 10 ppm and 0.2% DMSO used as controls. Each test concentration and standard was replicated twice on a plate. Compounds were screened against Phytophthora cactorum. The agar used in the test is a 1% PDA. 1000 spores/mL agar were added to the appropriate agar.
A ×10 stock solution in 2% DMSO was produced for each dose i.e. 200, 20, 2 and 0.2 ppm, and 10 μl of this added to the appropriate wells on the plate. An equivalent amount of 2% DMSO and Proline stock at 500 and 100 ppm were added for the controls. To each well 90 μl of the appropriate agar spore suspension was added to give the required final well concentrations. Plates were incubated at room temperature (18° C.) and assessed after 2 to 3 days. The amount of pathogen growth in each well was compared to the DMSO controls and an EC50 concentration was calculated. The results are provided in Table 1 in which G represents an EC50 above 20 ppm, F represents an EC50 of 1-20 ppm and E represents an EC50 less than 1 ppm.

Pythium ultimum [1] = assay: Amended agar assay (PDA), colony growth; settings: Globisporangium ultimum; 20 ppm in amended PDA, 18° C., reduction in colony growth vs control plate
Method: Testing was carried out on potato dextrose agar (PDA) amended with each compound at a test concentration of 20 ppm. Amended agar was poured into three replicate 9 cm petri dishes. Each replicate dish was inoculated in the centre with a 5 mm agar plug taken from the leading edge of a culture aged between 2 and 7 days old; the age of the culture was dependant on the growth rate of the pathogen being tested. The test pathogens were Pythium ultimum and Phytophthora cinnamomi. Plates were incubated at 18° C. and the diameter of each colony measured before growth on the fastest growing plate reached the plate edge. This varied between 2 and 7 days depending on the growth rate of test pathogens. The % reduction in colony growth compared to the control plate was calculated for each pathogen. The results are provided in Table 1, in which D represents no control detected at this concentration; C represents up to 50% control; B from 50 to 99% control; and A represents a control of greater than 99%, i.e. no detectable colony growth.
Alternatively, or in addition, the same assay was conducted at descending test concentrations with 5-fold dilutions typically down to 0.032 ppm though sometimes as low as 0.00026 ppm, and an EC50 (the concentration at which 50% control would be achieved) was determined. The results are provided in Table 1 in which G represents an EC50 above 20 ppm, F represents an EC50 of 1-20 ppm and E represents and EC50 less than 1 ppm.

Pythium ultimum [2] = assay: Amended agar assay (PDA), colony growth; design: key to % control Pythium ultimum 2 ppm: D: no control detected at this concentration; C: up to 50% control; B: from 50 to 99% control; A: a control of greater than 99%, i.e. no detectable colony growth; settings: for inhibition of growth at 2 ppm: Globisporangium ultimum, read-out: % control Pythium ultimum 2 ppm
oomycete plant pathogens = assay: Fungicidal activity testing, overall summary; settings: summary statement on Table 1
Method: The activity of compounds of the invention was assessed by testing against certain oomycete plant pathogens and representative data are presented in Table 1.

EC50 (Phytophthora cactorum) | Structure (SMILES) | inhibition of growth at 20 ppm (Pythium ultimum [1]) | inhibition of growth at 2 ppm (Pythium ultimum [2]) | control over the pathogens tested (oomycete plant pathogens) | % control Pythium ultimum 2 ppm (Pythium ultimum [2])
1 to 20 µg/mL (≈ 2.46 to 49.2 µM) | Cn1nnnc1-n1c(SCc2cccc(NC(=O)C3CC3)n2)nc2ccccc21 [Example 35] |  | 50 to 99% |  | 
> 20 µg/mL | CCC(=O)Nc1cccc(CSc2nc3ccccc3n2-c2nnnn2C)n1 [Example 36] |  | 50 to 99% |  | 
> 20 µg/mL | Cn1nnnc1-n1c(SCc2ccncn2)nc2ccccc21 [Example 43] |  |  |  | D
> 20 µg/mL | Cn1nnnc1-n1c(SCc2cccc(NC(=O)C(F)(F)Oc3ccccc3)n2)nc2ccc(I)cc21 [Example 44] |  |  |  | D
> 20 µg/mL | Clc1cncc(Cl)c1-n1c(SCc2ccccn2)nc2ccccc21 [Example 51] |  |  |  | D
> 20 µg/mL | CCNC(=O)CSc1nc2ccccc2n1-c1nnnn1C [Example 55] |  | < 50% |  | 
> 20 µg/mL | Cn1nnnc1-n1c(SCC(=O)N2CCOCC2)nc2ccccc21 [Example 56] |  | < 50% |  | 
> 20 µg/mL | Cn1nnnc1-n1c(SCC(=O)Nc2ccccc2)nc2ccccc21 [Example 57] |  | < 50% |  | 
> 20 µg/mL | CN(C)C(=O)CSc1nc2ccccc2n1-c1nnnn1C [Example 58] |  | < 50% |  | 
> 20 µg/mL | Cn1nnnc1-n1c(Sc2ncccn2)nc2ccccc21 [Example 60, 1-(1-Methyl-1H-tetrazol-5-yl)-2-(pyrimidin-2-ylthio)-1H-benzo[d]imidazole] |  | < 50% |  | 
> 20 µg/mL | Cn1nnnc1-n1c(Sc2ccccn2)nc2ccccc21 [Example 61, 1-(1-Methyl-1H-tetrazol-5-yl)-2-(pyridin-2-ylthio)-1H-benzo[d]imidazole] |  |  |  | D
> 20 µg/mL | C#Cc1ccc2nc(SCc3ccccn3)n(-c3nnnn3C)c2c1 [Example 64, 6-Ethynyl-1-(1-methyl-1H-tetrazol-5-yl)-2-((pyridin-2-ylmethyl)thio)-1H-benzo[d]imidazole] |  | < 50% |  | 
> 20 µg/mL | C#Cc1ccc2nc(SCc3cccc(NC(=O)C(F)(F)Oc4ccccc4)n3)n(-c3nnnn3C)c2c1 [Example 65, N-(6-(((6-Ethynyl-1-(1-methyl-1H-tetrazol-5-yl)-1H-benzo[d]imidazol-2-yl)thio)methyl)pyridin-2-yl)-2,2-difluoro-2-phenoxyacetamide] |  | 50 to 99% |  | 
> 20 µg/mL | Cn1nnnc1-n1c(SCc2nccc3ccccc23)nc2ccccc21 [Example 68] |  | 50 to 99% |  | 
> 20 µg/mL | COc1cccnc1CSc1nc2ccccc2n1-c1nnnn1C [Example 71] |  | < 50% |  | 
> 20 µg/mL | Cn1nnnc1-n1c(SCc2cccc(C#N)n2)nc2ccccc21 [Example 72] |  |  |  | D
> 20 µg/mL | Cn1nnnc1-n1c(SCc2ccc(C#N)cn2)nc2ccccc21 [Example 74] |  | < 50% |  | 
> 20 µg/mL | Cn1nnnc1-n1c(SCc2ncc(Cl)cc2Cl)nc2ccccc21 [Example 77] |  | 50 to 99% |  | 
> 20 µg/mL | Cn1nnnc1-n1c(SCc2cccc(NC(=O)C3CC3)n2)nc2cccc(Cl)c21 [Example 81] |  |  |  | 
> 20 µg/mL | Cn1nnnc1-n1c(SCc2ccccn2)nc2cccc(Cl)c21 [Example 82] |  | 50 to 99% |  | 
> 20 µg/mL | COc1cc(F)cc2c1nc(SCc1ccccn1)n2-c1nnnn1C [Example 85] |  | > 99% |  | 

Structure (SMILES) | EC50 (Phytophthora cactorum) | inhibition of growth at 20 ppm (Pythium ultimum [1]) | inhibition of growth at 2 ppm (Pythium ultimum [2]) | control over the pathogens tested (oomycete plant pathogens) | % control Pythium ultimum 2 ppm (Pythium ultimum [2])
Cn1nnnc1-n1c(SCc2nccs2)nc2ccccc21 [Example 34] | 1 to 20 µg/mL (≈ 3.04 to 60.7 µM) | > 99% | 50 to 99% | good to excellent control | 
Cc1ccnc(CSc2nc3ccccc3n2-c2nnnn2C)c1 [Example 37] | 1 to 20 µg/mL (≈ 2.96 to 59.3 µM) | > 99% | 50 to 99% | good to excellent control | 
COc1c(C)cnc(CSc2nc3ccccc3n2-c2nnnn2C)c1C [Example 38] | 1 to 20 µg/mL (≈ 2.62 to 52.4 µM) |  | > 99% | good to excellent control | 
COc1ccnc(CSc2nc3ccccc3n2-c2nnnn2C)c1OC [Example 39] | 1 to 20 µg/mL (≈ 2.61 to 52.2 µM) |  | > 99% | good to excellent control | 
COCCCOc1ccnc(CSc2nc3ccccc3n2-c2nnnn2C)c1C [Example 40] | 1 to 20 µg/mL (≈ 2.35 to 47 µM) |  | 50 to 99% | good to excellent control | 
COc1ccnc(CSc2nc3ccccc3n2-c2nnnn2C)c1 [Example 42] | 1 to 20 µg/mL (≈ 2.83 to 56.6 µM) |  | > 99% | good to excellent control | 
Cn1nnnc1-n1c(SCc2cccc(NC(=O)COc3ccccc3)n2)nc2ccc(F)cc21 [Example 47] | < 1 µg/mL |  | > 99% | good to excellent control | 
Cn1nnnc1-n1c(SCc2nccs2)nc2ccc(F)cc21 [Example 48] | 1 to 20 µg/mL (≈ 2.88 to 57.6 µM) |  | > 99% | good to excellent control | 
Cn1nnnc1-n1c(SCc2cccc(NC(=O)C3CC3)n2)nc2c(Cl)cccc21 [Example 63, N-(6-(((4-Chloro-1-(1-methyl-1H-tetrazol-5-yl)-1H-benzo[d]imidazol-2-yl)thio)methyl)pyridin-2-yl)cyclopropanecarboxamide] | 1 to 20 µg/mL (≈ 2.27 to 45.4 µM) |  | > 99% | good to excellent control | 
COc1ccnc(CSc2nc3cc(Cl)ccc3n2-c2nnnn2C)c1 [Example 66] | 1 to 20 µg/mL (≈ 2.58 to 51.6 µM) |  | > 99% | good to excellent control | 
Cn1nnnc1-n1c(SCc2ccccn2)nc2cc(Cl)ccc21 [Example 67] | 1 to 20 µg/mL (≈ 2.79 to 55.9 µM) |  | > 99% | good to excellent control | 
Cc1ccc(CSc2nc3ccccc3n2-c2nnnn2C)nc1 [Example 69] | 1 to 20 µg/mL (≈ 2.96 to 59.3 µM) |  | > 99% | good to excellent control | 
Cn1nnnc1-n1c(SCc2cc(C#N)ccn2)nc2ccccc21 [Example 70] | 1 to 20 µg/mL (≈ 2.87 to 57.4 µM) |  | > 99% | good to excellent control | 
COc1ccc(CSc2nc3ccccc3n2-c2nnnn2C)nc1 [Example 73] | 1 to 20 µg/mL (≈ 2.83 to 56.6 µM) |  | > 99% | good to excellent control | 
Cn1nnnc1-n1c(SCc2ccc(Br)cn2)nc2ccccc21 [Example 75] | 1 to 20 µg/mL (≈ 2.49 to 49.7 µM) |  | > 99% | good to excellent control | 
Cn1nnnc1-n1c(SCc2ccc(Cl)cn2)nc2ccccc21 [Example 76] | 1 to 20 µg/mL (≈ 2.79 to 55.9 µM) |  | > 99% | good to excellent control | 
Cn1nnnc1-n1c(SCc2cc(C(F)(F)F)ccn2)nc2ccccc21 [Example 78] | 1 to 20 µg/mL (≈ 2.56 to 51.1 µM) |  | > 99% | good to excellent control | 
Cn1nnnc1-n1c(SCc2cccc(NC(=O)OC(C)(C)C)n2)nc2cccc(Cl)c21 [Example 83] | 1 to 20 µg/mL (≈ 2.11 to 42.3 µM) |  | 50 to 99% | good to excellent control | 
COc1cc(F)cc2c1nc(SCc1cccc(NC(=O)OC(C)(C)C)n1)n2-c1nnnn1C [Example 84] | 1 to 20 µg/mL (≈ 2.06 to 41.1 µM) |  | > 99% | good to excellent control | 
Cn1nnnc1-n1c(SCc2cccc(NCc3ccccc3)n2)nc2ccccc21 [Example 88, N-Benzyl-6-(((1-(1-methyl-1H-tetrazol-5-yl)-1H-benzo[d]imidazol-2-yl)thio)methyl)pyridin-2-amine] | < 1 µg/mL |  | > 99% | good to excellent control | 
